Among the data in patent publication US7754896B2, “Indol-alanine derivatives as selective S1P4-agonists” (Novartis AG, priority 2004, dated 2010) are EC50 values, retold here.

Molecules are shown by their SMILES. Bounds are passed on as bounds.

The subject of one assay is CHO. Description: GTPγS binding assay, membranes of wild type CHO cells. Format: biochemical. The procedure:
Membrane proteins are prepared from wild type CHO-K1 and the CHO cell clones expressing human S1P4. To obtain 10-30 mg of membrane proteins, cells are grown in one large culture dish (500 cm^2) per cell clone to 80 and 90% confluence. The culture medium is removed and the cells are harvested on ice from the dish, by scraping in 20 ml cold HEPES 10 mM (pH 7.5) supplemented with 0.1% fatty acid-free bovine serum albumin (BSA) and protease inhibitors cocktail (one tablet per 50 ml, Roche Diagnostics, Rotkreuz). […] The protein concentration is determined using the Bio Rad Protein Assay and human IgG as standard. […]
The selection of the clones to be tested in the GTPγS assay is based on the real time PCR assays. […] The plates are then centrifuged for 10 minutes at 2000 rpm and counted with a TopCount instrument (Packard). […]
The compounds mentioned in this application are tested for specificity, e.g. the activity they have in the parental cell line prior transformation with the S1P4 cDNA and for selectivity on CHO cells lines transformed with the S1P1, S1P2, S1P3, and S1P5. […] For example, S1P4 specific and selective compounds may have an EC50 (apparent EC50) measured at S1P4 that is 10×, preferably 100× lower that that measured in wild type CHO cells or In cell expressing any of the other four S1P receptors.

The target in a further assay is T1, S1P3 (Homo sapiens, UniProt Q99500).
T1 construct: expressed in transfected cells
T1 sequence (Q99500 whole entry): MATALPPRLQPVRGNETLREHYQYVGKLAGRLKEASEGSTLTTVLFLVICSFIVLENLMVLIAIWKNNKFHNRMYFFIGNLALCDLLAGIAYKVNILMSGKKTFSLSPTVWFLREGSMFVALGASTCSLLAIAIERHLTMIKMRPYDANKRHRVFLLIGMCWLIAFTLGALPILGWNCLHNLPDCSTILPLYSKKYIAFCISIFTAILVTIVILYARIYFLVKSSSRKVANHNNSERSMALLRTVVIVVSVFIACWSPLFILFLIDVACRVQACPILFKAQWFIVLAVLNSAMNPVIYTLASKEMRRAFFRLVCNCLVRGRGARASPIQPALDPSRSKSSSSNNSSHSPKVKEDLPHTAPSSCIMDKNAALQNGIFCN
Description: GTPγS binding assay, S1P3. Format: biochemical. Particulars: CHO cells expressing S1P3. The source says:
Human S1P1 (GenBank™ accession number M31210) and S1P3 (GenBank™ accession number X83864) cDNA containing the myc sequence in front to the human S1P1 and S1P3 sequences are inserted in the pcDNA 3.1 vector. The vectors are sequenced to completion to confirm the correctness of the construct. The human S1P2 (GI: 4090955, TREMBL: 0195136) is cloned by a PCR based method. Lung cDNA (marathon cDNA) is obtained (BD Biosciences Chontech, Palo Alto, Calif. 94303, USA). Following oligonucleotides are used for the PCR reaction: forward primer CACCATGGGCAGCTTGTACTCGGAGTACCT GM CCC CAA CM GGT CCA G (1 to 45, GenBank™ accession number AF034780) and reverse primer 5′-GATTCAGACCACCGTGTTGCCCTCCAG (1062 to 1039, GenBank™ accession number AF034780), the initiation of the translation (ATG) and the stop codon are underlined. […] The amplified product of around 1100 bp is analyzed by standard agarose gel-electrophoresis. […]
Membrane proteins are prepared from wild type CHO-K1 and the CHO cell clones expressing human S1P4. […] The protein concentration is determined using the Bio Rad Protein Assay and human IgG as standard. […]
For orientation: GTPγS resists hydrolysis and so accumulates on activated G proteins.

Regarding `NC(CNC(=O)c1cc2c(-c3ccccc3Cc3ccccc3)cccc2[nH]1)C(=O)O` (centres unmarked) [Example 2], the EC50 in the assay with CHO and on S1P3 was greater than 10 µM in each case.

One may read the EC50 as the midpoint of the concentration-response curve. A high value points to weaker potency.
